In patent US4416884A, “Piperazinylbenzoheterocyclic compounds” (Otsuka Pharmaceutical Co., Ltd., priority 1978, dated 1983) one finds MIC data, which are given here for 4 compounds.

Common to all, as to assay: antimicrobial activity, serial dilution method on agar plate
Assay type in all cases: cell-based

For one assay, the system named is Escherichia Coli NIHJ. Particulars: inoculum 1 × 10^8 cells/ml, read-out: Minimum Inhibitory Concentration. The method, boiled down:
(§1)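 Two inoculum levels used: 1×10^8 cells/ml (O.D. 660 mμ = 0.07–0.16) and a diluted 1×10^6 cells/ml preparation. Minimum inhibitory concentrations in mcg/ml read from serial dilution on Heart Infusion agar plates.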

In another assay the test system is Klebsiella pneumoniae. The gist of the method: as §1
The next assay has as its system Proteus rettgeri NIH 96. Particulars: Providencia rettgeri, NIH96, inoculum 1 × 10^8 cells/ml; read-out: Minimum Inhibitory Concentration. The method, boiled down:
as §1

Assay [1] relates to Pseudomonas aeruginosa ATCC 10145. The gist of the method: as §1
For assay [2], the system named is Pseudomonas aeruginosa E-2. The conditions noted are these: E2, inoculum 1 × 10^8 cells/ml, read-out: Minimum Inhibitory Concentration. The gist of the method:
as §1

Assay [3] has as its system Pseudomonas aeruginosa NCTC 10490. The conditions noted are these: NCTC10490, inoculum 1 × 10^8 cells/ml, read-out: Minimum Inhibitory Concentration. The method, boiled down:
as §1

Assay [4] relates to Salmonella typhi 0-901 (NCTC 8393). Particulars: Salmonella enterica, read-out: Minimum Inhibitory Concentration, inoculum 1 × 10^8 cells/ml. The method, boiled down: as §1
The subject of assay [5] is Serattia marcescens IFO 12648. The conditions noted are these: inoculum 1 × 10^8 cells/ml; read-out: Minimum Inhibitory Concentration. The method, boiled down:
as §1

For another assay, the system named is Shigella Sonnei EW 33. Particulars: inoculum 1 × 10^8 cells/ml, read-out: Minimum Inhibitory Concentration. The gist of the method:
as §1

Assay [6] relates to Staphylococcus aureus FDA 209 P. The conditions noted are these: FDA209, inoculum 1 × 10^8 cells/ml, read-out: Minimum Inhibitory Concentration. The gist of the method:
as §1

Setting [7] is: inoculum 1 × 10^8 cells/ml, read-out: Minimum Inhibitory Concentration.
Where [8] appears, read: ATCC10145, inoculum 1 × 10^8 cells/ml, read-out: Minimum Inhibitory Concentration.

≈ marks a conversion by molar mass, not a printed value. Where two headings read alike, the source gives them in different places.

In the case of `CC1(C)SC2C(NC(=O)C(NC(=O)c3cn4c5c(c(N6CCN(S(C)(=O)=O)CC6)ccc5c3=O)CCC4)c3ccccc3)C(=O)N2C1C(=O)O` (stereo not shown) [Compound J, 6-{2-[8-(4-Methanesulfonyl-1-piperazinyl)-6,7-dihydro-1-oxo-1H,5H--benzo[ij]quinolizine-2-carboxamido]-2-phenylacetamido}-3,3-dimethyl-7-oxo-4-thia-1-azabicyclo[3,2,0]-heptane-2-carboxylic acid, reference compound], the MIC with Escherichia Coli NIHJ was determined as 3.1 µg/mL (≈ 4.29 µM); in the assay on Klebsiella pneumoniae (setting [7]), 6.3 µg/mL (≈ 8.72 µM); with Proteus rettgeri NIH 96, 12.5 µg/mL (≈ 17.3 µM); in [1] (setting [8]), 12.5 µg/mL (≈ 17.3 µM); in assay [2] it was 25 µg/mL (≈ 34.6 µM); in assay [3], 3.1 µg/mL (≈ 4.29 µM). The MIC in assay [4] is 3.1 µg/mL (≈ 4.29 µM); in assay [5] it was 50 µg/mL (≈ 69.2 µM); in the assay on Shigella Sonnei EW 33, 6.3 µg/mL (≈ 8.72 µM); in assay [6] it was 0.8 µg/mL (≈ 1.11 µM).

For the compound `CC1(C)SC2C(NC(=O)C(NC(=O)c3cn4c5c(c(N6CCNCC6)cc(Cl)c5c3=O)CCC4)c3ccccc3)C(=O)N2C1C(=O)O` (stereo not shown) [Compound K, 6-{2-[10-Chloro-8-(1-piperazinyl)-6,7-dihydro-1-oxo-1H,5H--benzo[ij]quinolizine-2-carboxamido]-2-phenylacetamido}-3,3-dimethyl-7-oxo-4-thia-1-azabicyclo[3,2,0]heptane-2-carboxylic acid, reference compound], the MIC was 6.3 µg/mL (≈ 9.28 µM) in the assay on Escherichia Coli NIHJ; 6.3 µg/mL (≈ 9.28 µM) in the assay on Klebsiella pneumoniae (setting [7]); 12.5 µg/mL (≈ 18.4 µM) in the assay with Proteus rettgeri NIH 96; 12.5 µg/mL (≈ 18.4 µM) in assay [1] (setting [8]); 25 µg/mL (≈ 36.8 µM) in assay [2]; 3.1 µg/mL (≈ 4.56 µM) in assay [3]. In addition, the MIC worked out at 3.1 µg/mL (≈ 4.56 µM) in assay [4], 12.5 µg/mL (≈ 18.4 µM) in assay [5], 3.1 µg/mL (≈ 4.56 µM) with Shigella Sonnei EW 33 and 0.8 µg/mL (≈ 1.18 µM) in assay [6].

Take `CC(=O)N1CCN(c2ccc3c(=O)c(C(=O)NC(C(=O)NC4C(=O)N5C4SC(C)(C)C5C(=O)O)c4ccccc4)cn4c3c2CCC4)CC1` (stereo not shown) [H]: the MIC in the assay with Escherichia Coli NIHJ was 6.3 µg/mL (≈ 9.17 µM); in the assay on Klebsiella pneumoniae (read-out: Minimum Inhibitory Concentration, inoculum 1 × 10^8 cells/ml), 12.5 µg/mL (≈ 18.2 µM); in the assay on Proteus rettgeri NIH 96, 25 µg/mL (≈ 36.4 µM); in assay [1] (ATCC10145, read-out: Minimum Inhibitory Concentration, inoculum 1 × 10^8 cells/ml) it was 12.5 µg/mL (≈ 18.2 µM); in assay [2] it was 25 µg/mL (≈ 36.4 µM); in assay [3], 3.1 µg/mL (≈ 4.51 µM). Also, the MIC in assay [4] is 6.3 µg/mL (≈ 9.17 µM); in assay [5] it was 50 µg/mL (≈ 72.8 µM); in the assay on Shigella Sonnei EW 33, 12.5 µg/mL (≈ 18.2 µM); in [6], 1.6 µg/mL (≈ 2.33 µM).

Consider `CC1(C)SC2C(NC(=O)C(NC(=O)c3cn4c5c(c(N6CCNCC6)ccc5c3=O)CCC4)c3ccccc3)C(=O)N2C1C(=O)O` (stereo not shown) [I], for which the MIC in the assay on Escherichia Coli NIHJ was 1.6 µg/mL (≈ 2.48 µM); in the assay with Klebsiella pneumoniae (setting [7]), 0.8 µg/mL (≈ 1.24 µM); with Proteus rettgeri NIH 96, 0.4 µg/mL (≈ 0.62 µM); in assay [1] (setting [8]), 25 µg/mL (≈ 38.8 µM); in assay [2] it was 25 µg/mL (≈ 38.8 µM); in [3], 6.3 µg/mL (≈ 9.77 µM). Also, the MIC is 0.2 µg/mL (≈ 0.31 µM) in assay [4], 12.5 µg/mL (≈ 19.4 µM) in [5], 3.1 µg/mL (≈ 4.81 µM) in the assay with Shigella Sonnei EW 33 and 0.1 µg/mL (≈ 0.155 µM) in assay [6].
